Assays:
Type in all cases: cell-based
[1] = tested on: ARCaPE cells; test: Chemotherapeutic sensitivity, cell growth by MTT assay, ARCaPE cells; conditions: Homo sapiens, in vitro growth, 96 hrs incubation
Description: (§1) Cells (5×10^3 per well) were cultured in 96-well plates for 24 hr and then replaced with fresh cultured medium to which were added Paclitaxel, Etoposide, or Doxorubicin (Sigma, St. Louis, Mo.) at 4 different concentrations, followed by incubation for 96 hrs. Cell growth was measured using the MTT assay.

[2] = tested on: C4-2 cells; test: Chemotherapeutic sensitivity, cell growth by MTT assay, C4-2 cells; conditions: Homo sapiens, invasive LNCaP lineage C4-2 cells, in vitro growth
Description: as §1

[3] = tested on: ARCaPM cells; test: Chemotherapeutic sensitivity, cell growth by MTT assay, ARCaPM cells; conditions: Homo sapiens, in vitro growth, 96 hrs incubation
Description: as §1

| Compound | IC50 [1] [µM] | IC50 [2] [µM] | IC50 [3] [µM] |
| --- | --- | --- | --- |
| COc1cc([C@@H]2c3cc4c(cc3[C@@H](O[C@@H]3O[C@@H]5CO[C@@H](C)O[C@H]5[C@H](O)[C@H]3O)[C@H]3COC(=O)[C@H]23)OCO4)cc(OC)c1O [etoposide] | 8.1 | 5.6 | 5.8 |
| CC(=O)O[C@H]1C(=O)[C@@]2(C)[C@H]([C@H](OC(=O)c3ccccc3)[C@]3(O)C[C@H](OC(=O)[C@H](O)[C@@H](NC(=O)c4ccccc4)c4ccccc4)C(C)=C1C3(C)C)[C@]1(OC(C)=O)CO[C@@H]1C[C@@H]2O [paclitaxel] | 0.053 | 0.0235 | 0.039 |
| COc1cccc2c1C(=O)c1c(O)c3c(c(O)c1C2=O)C[C@@](O)(C(=O)CO)C[C@@H]3O[C@H]1C[C@H](N)[C@H](O)[C@H](C)O1 [doxorubicin] | 3.4 | 2.7 | 5.5 |

— patent publication US20090028832A1, “Compositions and methods for targeted tumor therapy” (priority 2006, published 2009)
